This passage reports IC50 results from patent US10294207B2, “Pyrazole derivatives as TNIK, IKKϵ and TBK1 inhibitor and pharmaceutical composition comprising same” (GREEN CROSS CORPORATION, priority 2015, dated 2019).

One assay deals with T1, IKKε (Homo sapiens, UniProt Q14164).
T1 construct: purchased Invitrogen PR8031B
T1 sequence (Q14164 1-716): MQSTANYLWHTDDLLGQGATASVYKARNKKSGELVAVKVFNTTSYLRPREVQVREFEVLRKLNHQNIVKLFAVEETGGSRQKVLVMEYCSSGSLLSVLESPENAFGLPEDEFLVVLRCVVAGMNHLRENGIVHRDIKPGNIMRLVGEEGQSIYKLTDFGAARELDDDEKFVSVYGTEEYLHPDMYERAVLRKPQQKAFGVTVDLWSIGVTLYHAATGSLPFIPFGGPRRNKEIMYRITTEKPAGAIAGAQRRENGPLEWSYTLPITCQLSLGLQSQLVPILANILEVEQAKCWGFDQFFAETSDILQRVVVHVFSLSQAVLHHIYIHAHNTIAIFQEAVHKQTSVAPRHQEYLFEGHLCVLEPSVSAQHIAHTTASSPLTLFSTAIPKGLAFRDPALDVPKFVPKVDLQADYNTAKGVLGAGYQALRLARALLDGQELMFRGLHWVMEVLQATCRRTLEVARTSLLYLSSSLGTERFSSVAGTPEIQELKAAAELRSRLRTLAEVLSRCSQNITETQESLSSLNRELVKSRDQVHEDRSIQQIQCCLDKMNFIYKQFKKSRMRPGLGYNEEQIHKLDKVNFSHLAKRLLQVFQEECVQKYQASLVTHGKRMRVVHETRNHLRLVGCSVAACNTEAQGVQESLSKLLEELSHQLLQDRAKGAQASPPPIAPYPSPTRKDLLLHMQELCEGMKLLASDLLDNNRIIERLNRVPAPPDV
Briefly: IKKε inhibition, ADP-Glo Kinase Assay. The format is biochemical. The conditions noted are these: luminometer. An outline of the steps: (§1)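 ADP-Glo luminescence reported ADP produced by each kinase, following the kit protocol. Reactions used commercial kinase enzyme systems in buffer of 40 mM Tris (pH 7.5), 20 mM MgCl2 and 0.1 mg/mL BSA.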
For orientation: ADP-Glo turns the ADP formed in a reaction into a luminescent signal.

In the next assay the target is T2, TBK1 (Homo sapiens, UniProt Q9UHD2).
T2 construct: purchased Promega V3991
T2 sequence (Q9UHD2 1-729): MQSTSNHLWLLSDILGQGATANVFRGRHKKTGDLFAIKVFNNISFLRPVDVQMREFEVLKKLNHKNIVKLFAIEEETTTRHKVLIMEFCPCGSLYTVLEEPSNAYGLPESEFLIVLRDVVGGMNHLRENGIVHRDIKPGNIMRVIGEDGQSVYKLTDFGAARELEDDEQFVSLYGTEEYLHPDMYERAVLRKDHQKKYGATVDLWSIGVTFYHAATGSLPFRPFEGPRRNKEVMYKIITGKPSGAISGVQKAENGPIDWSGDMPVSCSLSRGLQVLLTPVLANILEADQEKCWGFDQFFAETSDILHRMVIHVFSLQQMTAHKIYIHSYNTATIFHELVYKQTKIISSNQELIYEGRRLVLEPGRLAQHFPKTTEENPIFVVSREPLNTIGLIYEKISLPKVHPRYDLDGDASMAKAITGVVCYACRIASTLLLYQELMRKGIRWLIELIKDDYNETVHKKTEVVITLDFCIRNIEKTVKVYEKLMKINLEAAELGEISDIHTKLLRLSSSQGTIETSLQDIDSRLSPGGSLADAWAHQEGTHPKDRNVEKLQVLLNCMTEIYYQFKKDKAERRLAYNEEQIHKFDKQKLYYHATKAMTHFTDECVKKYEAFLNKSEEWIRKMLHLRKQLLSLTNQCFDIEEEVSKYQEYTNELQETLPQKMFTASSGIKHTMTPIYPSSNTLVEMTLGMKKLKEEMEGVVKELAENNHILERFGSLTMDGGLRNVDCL
Briefly: TBK1 inhibition, ADP-Glo Kinase Assay. The conditions noted are these: luminometer. Type of assay: biochemical. An outline of the steps:
as §1

By IC50 is commonly meant the concentration that gives 50% inhibition. A lower IC50 goes with greater potency. On to `CC1CN(c2ccc(C(=O)Nc3n[nH]c4ccc(C(=O)NCc5cccs5)cc34)cc2)CC(C)O1` (centres unmarked) [Example 92, 3-(4-(2,6-Dimethylmorpholino)benzamido)-N-(thiophen-2-ylmethyl)-1H-indazole-5-carboxamide 2,2,2-trifluoroacetate], for which the values for the IC50 against IKKε and at TBK1 were 0.065 µM and 0.007 µM, respectively.

Turning to `CC(CCO)NC(=O)c1ccc2[nH]nc(NC(=O)c3ccc(N4CCN(C)CC4)cc3)c2c1` (centres unmarked) [Example 93, N-(4-Hydroxybutan-2-yl)-3-(4-(4-methylpiperazin-1-yl)benzamido)-1H-indazole-5-carboxamide], the IC50 against IKKε worked out at 1.04 µM; on TBK1 it was 0.19 µM.

On to `CN1CCN(c2ccc(C(=O)Nc3n[nH]c4ccc(C(=O)NCc5c[nH]nn5)cc34)cc2)CC1` [Example 94, N-((1H-1,2,3-Triazol-4-yl)methyl)-3-(4-(4-methylpiperazin-1-yl)benzamido)-1H-indazole-5-carboxamide], for which the IC50 against IKKε turned out to be 1.59 µM; on TBK1, 0.24 µM.

For the compound `CCC(NC(=O)c1ccc2[nH]nc(NC(=O)c3ccc(N4CC(C)NC(C)C4)cc3)c2c1)c1cccs1` (centres unmarked) [Example 95, 3-(4-(3,5-dimethylpiperazin-1-yl)benzamido)-N-(1-(thiophen-2-yl)propyl)-1H-indazole-5-carboxamide 2,2,2-trifluoroacetate], the figures for the IC50 on IKKε and on TBK1 were 0.021 µM and 0.0028 µM, respectively.

In the case of `CCC(NC(=O)c1ccc2[nH]nc(NC(=O)c3ccc(N4CC(C)OC(C)C4)cc3)c2c1)c1cccs1` (centres unmarked) [Example 96, 3-(4-(2,6-Dimethylmorpholino)benzamido)-N-(1-(thiophen-2-yl)propyl)-1H-indazole-5-carboxamide 2,2,2-trifluoroacetate], the concentration for half-maximal inhibition (IC50) is 0.047 µM on IKKε and 0.0051 µM against TBK1.

Consider `CCC(NC(=O)c1ccc2[nH]nc(NC(=O)c3ccc(N4CCN[C@@H](C)C4)cc3)c2c1)c1cccs1` (stereo partly drawn) [Example 97, 3-(4-((S)-3-Methylpiperazin-1-yl)benzamido)-N-(1-(thiophen-2-yl)propyl)-1H-indazole-5-carboxamide 2,2,2-trifluoroacetate], for which the IC50 amounted to 0.016 µM against IKKε and 0.0028 µM against TBK1.

As for `CCC(NC(=O)c1ccc2[nH]nc(NC(=O)c3ccc(N4CCN[C@H](C)C4)cc3)c2c1)c1cccs1` (stereo partly drawn) [Example 98, 3-(4-((R)-3-Methylpiperazin-1-yl)benzamido)-N-(1-(thiophen-2-yl)propyl)-1H-indazole-5-carboxamide 2,2,2-trifluoroacetate], the figures for the half-maximal inhibitory concentration (IC50) at IKKε and on TBK1 were 0.023 µM and 0.003 µM, respectively.

On to `CCC(NC(=O)c1ccc2[nH]nc(NC(=O)c3ccc(N4C[C@@H](C)N[C@@H](C)C4)cc3)c2c1)c1cccs1` (stereo partly drawn) [Example 99, 3-(4-((3R,5S)-3,5-Dimethylpiperazin-1-yl)benzamido)-N-(1-(thiophen-2-yl)propyl)-1H-indazole-5-carboxamide 2,2,2-trifluoroacetate], for which the IC50 against IKKε is 0.014 µM; against TBK1, 0.0027 µM.

Consider `Cc1noc(CNC(=O)c2ccc3[nH]nc(NC(=O)c4ccc(N5CCOCC5)cc4)c3c2)n1` [Example 100, N-((3-Methyl-1,2,4-oxadiazol-5-yl)methyl)-3-(4-morpholinobenzamido)-1H-indazole-5-carboxamide 2,2,2-trifluoroacetate], for which the values for the IC50 against IKKε and at TBK1 were 0.95 µM and 0.22 µM, respectively.

As for `Cc1noc(CNC(=O)c2ccc3[nH]nc(NC(=O)c4ccc(N5CCN(C)CC5)cc4)c3c2)n1` [Example 101, N-((3-Methyl-1,2,4-oxadiazol-5-yl)methyl)-3-(4-(4-methylpiperazin-1-yl)benzamido)-1H-indazole-5-carboxamide 2,2,2-trifluoroacetate], the IC50 worked out at 0.96 µM at IKKε and 0.15 µM at TBK1.

Take `CCC(NC(=O)c1ccc2[nH]nc(NC(=O)c3ccc(N4CCNCC4)cc3)c2c1)c1cccs1` (centres unmarked) [Example 102, 3-(4-(Piperazin-1-yl)benzamido)-N-(1-(thiophen-2-yl)propyl)-1H-indazole-5-carboxamide]: the concentration for half-maximal inhibition (IC50) worked out at 0.025 µM against IKKε and 0.0058 µM against TBK1.

As for `CN1CCN(c2ccc(C(=O)Nc3n[nH]c4ccc(C(=O)NCc5nccs5)cc34)cc2)CC1` [Example 103, 3-(4-(4-Methylpiperazin-1-yl)benzamido)-N-(thiazol-2-ylmethyl)-1H-indazole-5-carboxamide 2,2,2-trifluoroacetate], the values for the IC50 at IKKε and on TBK1 were 0.44 µM and 0.02 µM, respectively.

Consider `O=C(NCc1nccs1)c1ccc2[nH]nc(NC(=O)c3ccc(N4CCOCC4)cc3)c2c1` [Example 104, 3-(4-Morpholinobenzamido)-N-(thiazol-2-ylmethyl)-1H-indazole-5-carboxamide 2,2,2-trifluoroacetate], for which the IC50 is 0.37 µM on IKKε and 0.026 µM on TBK1.

`O=C(NCc1ncon1)c1ccc2[nH]nc(NC(=O)c3ccc(N4CCOCC4)cc3)c2c1` [Example 105, N-((1,2,4-Oxadiazol-3-yl)methyl)-3-(4-morpholinobenzamido)-1H-indazole-5-carboxamide 2,2,2-trifluoroacetate]: the IC50 on IKKε was 1.14 µM; against TBK1, 0.1 µM.

As to `CN1CCN(c2ccc(C(=O)Nc3n[nH]c4ccc(C(=O)NCC5CCC5)cc34)cc2)CC1` [Example 106, N-(Cyclobutylmethyl)-3-(4-(4-methylpiperazin-1-yl)benzamido)-1H-indazole-5-carboxamide], the IC50 against IKKε was found to be 0.15 µM; at TBK1 it was 0.023 µM.

As for `CCC(NC(=O)c1ccc2[nH]nc(NC(=O)c3ccc(N4CCC(O)CC4)cc3)c2c1)c1cccs1` (centres unmarked) [Example 108, 3-(4-(4-Hydroxypiperidin-1-yl)benzamido)-N-(1-(thiophen-2-yl)propyl)-1H-indazole-5-carboxamide], the values for the IC50 against IKKε and on TBK1 were 0.015 µM and 0.0028 µM, respectively.

For the compound `CCC(NC(=O)c1ccc2[nH]nc(NC(=O)c3ccc(N4CCN(CC)CC4)cc3)c2c1)c1cccs1` (centres unmarked) [Example 109, 3-(4-(4-Ethylpiperazin-1-yl)benzamido)-N-(1-(thiophen-2-yl)propyl)-1H-indazole-5-carboxamide], the IC50 against IKKε came out at 0.025 µM; at TBK1, 0.0036 µM.

Take `CCC(NC(=O)c1ccc2[nH]nc(NC(=O)c3ccc(N4CCC(OC)CC4)cc3)c2c1)c1cccs1` (centres unmarked) [Example 110, 3-(4-(4-methoxypiperidin-1-yl)benzamido)-N-(1-(thiophen-2-yl)propyl)-1H-indazole-5-carboxamide]: the results for the half-inhibitory concentration (IC50) against IKKε and on TBK1 were 0.036 µM and 0.0072 µM, respectively.

Turning to `CC[C@H](NC(=O)c1ccc2[nH]nc(NC(=O)c3ccc(N4CCN(C)CC4)cc3)c2c1)c1cccs1` [Example 111, (S)-3-(4-(4-Methylpiperazin-1-yl)benzamido)-N-(1-(thiophen-2-yl)propyl)-1H-indazole-5-carboxamide], the IC50 at IKKε turned out to be 0.074 µM; at TBK1, 0.014 µM.

As to `CC[C@@H](NC(=O)c1ccc2[nH]nc(NC(=O)c3ccc(N4CCN(C)CC4)cc3)c2c1)c1cccs1` [Example 112, (R)-3-(4-(4-Methylpiperazin-1-yl)benzamido)-N-(1-(thiophen-2-yl)propyl)-1H-indazole-5-carboxamide], the IC50 at IKKε turned out to be 0.011 µM; on TBK1 it was 0.0042 µM.

As for `CCCCNC(=O)c1ccc2[nH]nc(NC(=O)c3ccc(N4CCN(C)CC4)cc3)c2c1` [Example 113, N-Butyl-3-(4-(4-methylpiperazin-1-yl)benzamido)-1H-indazole-5-carboxamide 2,2,2-trifluoroacetate], the values for the half-inhibitory concentration (IC50) on IKKε and at TBK1 were 0.18 µM and 0.018 µM, respectively.

`CC(C)CCNC(=O)c1ccc2[nH]nc(NC(=O)c3ccc(N4CCN(C)CC4)cc3)c2c1` [Example 114, N-Isopentyl-3-(4-(4-methylpiperazin-1-yl)benzamido)-1H-indazole-5-carboxamide 2,2,2-trifluoroacetate]: the IC50 against IKKε turned out to be 0.41 µM; at TBK1 it was 0.082 µM.
